The values that follow come from patent US8765683B2, “T-140 peptide analogs having CXCR4 super-agonist activity for cancer therapy” (Biokine Therapeutics Ltd., priority 2006, dated 2014).

Bridge positions count the residues as written; N and C are the ends. Square brackets hold non-standard residues; d marks the D form. Peptide text beside a SMILES is read from it. * marks the point of attachment. 2Nal = N[C@@H](Cc1ccc2ccccc2c1)C(=O)O; Benzoyl(4-F) = O=C(c1ccc(F)cc1)*; Cit = NC(=O)NCCC[C@H](N)C(=O)O

The test system of one assay is PC3-CXCR4.5 cells. The assay is described as follows: MIP3α secretion by PC3-CXCR4.5 cells (ELISA). The class given is cell-based. The following applies: ELISA. The protocol:
In this example, regulation of the chemokine MIP3α (macrophage inflammatory protein 3α) was examined. […] In FIG. 1B, PC3 (left panel) and PC3-CXCR4.5 (right panel) cells were stimulated with the indicated concentrations of CXCL12 for 48 hours and MIP3α secretion was assessed by ELISA. The results represent the average of triplicates±STDEV.
The effects of the CXCR4 antagonist AMD3100 and of 4F-benzoyl-TN14003 (4FB-TN14003), hitherto known as a CXCR4 antagonist, on MIP3α secretion were further tested. […] In FIG. 1C, CXCR4 signaling in PC3 (left panel) and PC3-CXCR4.5 (right panel) cells was inhibited with anti-CXCL12 antibodies (αCXCL12) and Pertussis toxin (PTX) treatments alone or in combination with CXCL12, as indicated. Secretion of MIP3α was assessed by ELISA. The results represent the average of triplicates±STDEV.
For orientation: An ELISA detects its analyte on a solid surface through an enzyme-linked reagent.

The subject of a further assay is U87 glioma cells. Put plainly: Survival and death of U87 glioma cells (Annexin V). The class given is cell-based. The protocol: U87 cells were treated with 4F-benzoyl-TN14003 and tested for their survival (FIG. 15A) and death (FIG. 15B).
The subject of a further assay is U266. Put plainly: Proliferation and apoptosis (annexin) of U266 MM cells. The class given is cell-based, human. Particulars: 4F-benzoyl-TN14003 0.4-40 μM.
In the next assay the test system is BM derived CD34+ cells. The assay is described as follows: Survival of CD34+ cells in BM samples of MM patients. In kind it is cell-based, human. Particulars: 8 μM, 24 hr.

As for `N=C(N)NCCC[C@H](NC(=O)[C@@H]1CSSC[C@H](NC(=O)[C@H](Cc2ccc3ccccc3c2)NC(=O)[C@H](CCCNC(=N)N)NC(=O)[C@H](CCCNC(=N)N)NC(=O)c2ccc(F)cc2)C(=O)N[C@@H](Cc2ccc(O)cc2)C(=O)N[C@@H](CCCNC(N)=O)C(=O)N[C@@H](CCCCN)C(=O)N[C@H](CCCCN)C(=O)N2CCC[C@H]2C(=O)N[C@@H](Cc2ccc(O)cc2)C(=O)N[C@@H](CCCNC(=N)N)C(=O)N[C@@H](CCCNC(N)=O)C(=O)N1)C(N)=O` [4F-benzoyl-TN14003, 4F-benzoyl-Arg-Arg-Nal-Cys-Tyr-Cit-Lys-DLys-Pro-Tyr-Arg-Cit-Cys-Arg-NH2] ({Benzoyl(4-F)}-RR[2Nal]CY[Cit]K[dK]PYR[Cit]CR-NH2; disulfide 4-13), in the assay on PC3-CXCR4.5 cells, the MIP3α secretion result is listed as “induced in both cell lines MIP3α secretion in an agonist manner”. For the same compound, the “tumor cell death of glioma cells” value in the assay with U87 glioma cells is listed as “induce tumor cell death”. For the same compound, in the assay on U266, the “apoptotic cell death (annexin assay)” value was “stimulated apoptotic cell death” and the growth entry is “inhibited the growth”. Further, the “percentage of CD34+ cells” value in the assay on BM derived CD34+ cells was “remained unaffected”.
